From patent publication US8178578B2, “Chemical compounds” (The University of Manchester, priority 2006, dated 2012)
pIC50: −log10 of the molar value.

Experiments:
[1] = system: K562 human chronic myelogenous leukaemia cell line; test: Test (a): growth inhibitory activity, MTT assay; type: cell-based; conditions: 120 h, K562 cells, 5 days incubation, read-out: IC50 - Assay (a), concentration to inhibit 50% cell proliferation
Description: The compounds of the present invention were tested in test (a) for growth inhibitory activity (IC50) against the K562 human chronic myelogenous leukaemia cell line using a MTT assay generally as described in Tada, H., Shiho, O., Kuroshima, K., Koyama, M., Tsukamoto, K., J. Immunol. Methods 1986, 93, 157 and Edmondson, J. M., Armstrong, L. S., Martinez, A. O., J. Tissue Culture Methods 1988, 11, 15. Cells were cultured in Roswell Park Memorial Institute (RPMI) medium, free of antibiotics and containing L-glutamine ([…]), supplemented with 10% foetal calf serum. A single suspension of the K562 cell line was tested from an exponentially growing culture. The cells were counted using a haemocytometer, and diluted to 5×10^3/ml.
A compound of the present invention was dissolved in dimethylsulfoxide (DMSO) at a concentration of 50 μM and 4 μl of the DMSO solution was added to the cell suspension (4 ml). 1 ml of this solution was added to a further 1 ml of cell solution in a neighbouring tube, giving a compound half that of the initial dilution. The dilutions were continued in the same manner affording seven samples at different concentrations. One cell solution was left compound free as a control. Treated cells (200 μl) were pipetted in triplicate into a 96-well plate and incubated at 37° C. in a 5% CO2 in air atmosphere for 5 days. After this time, the plate was removed from the incubator and a solution of (3-(4,5-dimethylthiazol-2-yl)-2,5-diphenyltetrazolium bromide (MTT) (50 μl, 3 mg/ml in phosphate buffered saline (PBS)) was added to each well. After a further 3 hour incubation period under the same conditions, the medium was carefully removed from each well by suction and the resulting formazan precipitate was dissolved in DMSO (200 μl). The optical density of each well was then read (540 nm) using a Titretek Multiscan MCC/340 platereader. After processing and analysis through the application of an ‘in-house’ software package, the results obtained enabled the calculation of the drug dose required to inhibit cellular growth by 50% (GI50 or IC50 value).

[2] = system: DLD-1 tumours (colon carcinomas); test: Test (c): in vivo functional vasculature study with Hoechst 33342; set-up: species or system mice; conditions: single intraperitoneal dose at believed maximum tolerated dose
Description: The compounds of the present invention were also tested in in vivo functional vasculature studies using the fluorescent DNA-binding compound Hoechst 33342 (H33342)
Twenty-eight mice were used for test (c). The tumours used were colon carcinomas (DLD-1). Once the tumours reached a suitable size, mice were randomised and assigned into 10 groups with one control group and 3 groups for each compound to be tested (referred to as a “drug group”). Mice in a drug group were treated intraperitoneally with a single dose of a compound of the present invention at a dose believed to be the maximum tolerated dose for each compound being tested (the maximum tolerated dose being measured by dosing mice with increasing amounts of compound (normally doubling the previous dose) until it is either fatal or the animal suffers substantial weight loss or has become distressed). The dose for the compound of Example 1 was 60 mg/kg, for the compound of Example 2 was 120 mg/kg and for the compound of Example 3 was 270 mg/kg. The control group was untreated. H33342 was then injected intravenously at 40 mg/kg to the treated mice 4, 8 and 24 hours after administration of a compound of the present invention and after 24 hours to the untreated control mice. After one minute, each mouse was killed by cervical dislocation and the tumours were removed. Following this procedure the H33342 is confined to the nuclei of cells adjacent to the blood vessels. The tumours were wrapped in aluminium foil and immediately snap-frozen in liquid nitrogen and then stored at −80° C. until required for sectioning. For assessment of tumour vasculature, 10 μm-thick sections were cut using a cryostat (Leica, CM 1100, Scientific Laboratory Supplies, UK) with intervals between sections of 200 μm. The sections were placed on glass slides and allowed to air dry before viewing under a light microscope using UV illumination. Functional vascular volume was quantified using a point scoring system as described previously (Cowen S. E., Bibby M. C., Double J. A., Characterisation of the vasculature within a murine adenocarcinoma growing in different sites to evaluate the potential of vascular therapies, Acta Oncologica, 1995, 34, 357-60). Using a graticule with 22×16 grids, points crossing areas of fluorescence were counted as positive points. The total number of positive points was used to calculate the percentage of functional vasculature. Five sections per tumour and 5 fields per section were examined for tumours.
The results of test (c) are shown in FIG. 1, which is a graph showing relative percentage of control functional vasculature in the DLD-1 tumours after treatment with the compounds of Examples 1, 2 and 3 at doses of 60, 120 and 270 mg/kg respectively. Each point plotted in the graph of FIG. 1 represents the mean percentage of control functional vasculature for each time-point.

[3] = Maximum tolerated dose by dose escalation in mice; conditions: mouse, in vivo, ip, single intraperitoneal dose, read-out: dose believed to be the maximum tolerated dose
tubulin = test: Test (b): inhibition of tubulin assembly; type: biochemical; conditions: absorbance at 350 nm over 20 minutes, 37° C.; read-out: IC50 - Assay (b), concentration for 50% inhibition of tubulin assembly
Description: The compounds of the present invention were also tested in assay (b) for their ability to inhibit tubulin assembly generally as described in McGown and Fox, “Structural and biochemical comparison of the anti-mitotic agents colchicine, combretastatin A-4 and amphethinile” Anti-Cancer Drug Design, 3, 249, 1989.
Samples were prepared in quartz cuvettes at 0° C. and contained 2-morpholinoethanesulfonic acid (MES) buffer (740 μl, 0.1 M MES, 1 mM ethylene glycol tetraacetic acid (EGTA), 0.5 mM MgCl2, pH 6.6), a compound of the present invention (10 μl, 1 mM in DMSO), tubulin (150 μl, 1/4 dilution of neat tubulin in MES buffer) and GTP (100 μl, 10 mM). The overall concentration of the compound in solution was therefore 10 μM. The cell was mixed well, dried and immediately placed in a Varian Cary 1 UV/Visible spectrophotometer, preheated to 37° C., along with a control sample containing MES buffer (740 μl), guanosine triphosphate (GTP) (100 μl, 10 mM), tubulin (150 μl, concentration as before) and DMSO (10 μl). The absorbance at 350 nm was recorded over a period of 20 minutes. The results were compared with the untreated control experiment to assess the relative degree of change in optical density. If assembly was less than 50% of that of the control, the experiment was repeated using decreasing concentrations (from 1 mM) of the compound in order to determine the activity.

| melting point | Compound | pIC50 [1] | functional vasculature in DLD-1 tumours compared to control tumours ([2]; 8 hours post-treatment) | functional vasculature in DLD-1 tumours compared to control tumours ([2]; 24 hours post-treatment) | MTD [3] | pIC50 (tubulin) | functional vasculature in DLD-1 tumours compared to control tumours ([2]; 4 hours post-treatment) |
| --- | --- | --- | --- | --- | --- | --- | --- |
| 145 °C | COc1cc2c(c(OC)c1OC)-c1ccc(N)cc1COC2 [Example 6, 9,10,11-Trimethoxy-5,7-dihydrodibenzo[c,e]oxepin-3-amine] | – | – | – | – | – | – |
| 161 °C | COc1cc2c(c(OC)c1OC)-c1ccc([N+](=O)[O-])cc1COC2 [Example 5, 1,2,3-Trimethoxy-9-nitro-5,7-dihydrodibenzo[c,e]oxepine] | – | – | – | – | – | – |

More lines, now with the values behind:

| Compound | melting point | pIC50 [1] | functional vasculature in DLD-1 tumours compared to control tumours ([2]; 8 hours post-treatment) | functional vasculature in DLD-1 tumours compared to control tumours ([2]; 24 hours post-treatment) | MTD [3] | pIC50 (tubulin) | functional vasculature in DLD-1 tumours compared to control tumours ([2]; 4 hours post-treatment) |
| --- | --- | --- | --- | --- | --- | --- | --- |
| COc1ccc2c(c1)COCc1cc(OC)c(OC)c(OC)c1-2 [Example 1, 1,2,3,9-Tetramethoxy-5,7-dihydrodibenzo[c,e]oxepine] | – | 6.96 | significant decrease | significant decrease | 60 mg/kg | 5.24 | – |
| COc1cc2c(c(OC)c1OC)-c1cc3c(cc1COC2)OCO3 [Example 2, 5,7-Dihydro-1,2,3-trimethoxybenzo[d][1,3]dioxolo[4,5-h][2]benzoxepin] | – | – | no difference | significant functional vasculature decrease | 120 mg/kg | – | no difference |
| COc1ccc2c(c1O)COCc1cc(OC)c(OC)c(OC)c1-2 [Example 3, 3,9,10,11-Tetramethoxy-5,7-dihydrodibenzo[c,e]oxepin-4-ol] | – | 7.47 | restored back to above control level | significantly decreased | 270 mg/kg | 6.10 | dramatically decreased |
| COc1ccc2c(c1OS(=O)(=O)C(F)(F)F)COCc1cc(OC)c(OC)c(OC)c1-2 [Example 7, 3,9,10,11-Tetramethoxy-5,7-dihydrodibenzo[c,e]oxepin-4-yl trifluoromethanesulfonate] | 164 °C | – | – | – | – | – | – |
| COc1ccc2c(c1OP(=O)([O][Na+])[O][Na+])COCc1cc(OC)c(OC)c(OC)c1-2 [Example 4, 3,9,10,11-Tetramethoxy-5,7-dihydrodibenzo[c,e]oxepin-4-yl disodium phosphate] | – | 9.64 | – | – | – | 6.15 | – |
| COc1ccc2c(c1N)COCc1cc(OC)c(OC)c(OC)c1-2 [Example 9, 3,9,10,11-Tetramethoxy-5,7-dihydrodibenzo[c,e]oxepin-4-amine] | – | 8.70 | – | – | – | 6.05 | – |
